Measurements as given in patent US11524003B2, “Alpha-amino esters of hydroxypropylthiazolidine carboxamide derivative and salt form, crystal polymorph thereof” (ObsEva S.A., priority 2016, dated 2022).

Key:
[1] = test system: OT-induced myometrial contractility; test: Oxytocin-induced contractions of human myometrial biopsies (myograph); details: 6, 60, 600, 6000 nM
Procedure: Experiments were performed using a DMT Myograph 800 MS (ADINSTRUMENTS™) in oxygenated Kreb's solution with ADI Powerlab software. Once regular contractions had been established for at least 20 minutes, baseline measurements of spontaneous contraction frequency were recorded. The measurement of spontaneous contraction frequency is represented on the x-axis as “Spon.” A DMSO control or compound II was then added to each myometrial sample at the indicated concentrations and the effects of control or compound II on contractile frequency were measured over the ensuing 10-minute period. This time point is represented on the x-axis as “Compound II.” The effects of compound II on contractile frequency in the presence of OT were subsequently measured by challenging the myometrial tissue samples with increasing concentrations of OT (1 nM, 10 nM, and 100 nM) at sequential 10-minute intervals. […] Once regular contractions had been established for at least 20 minutes, baseline measurements of spontaneous work done per contraction were recorded. The measurement of spontaneous work done per contraction is represented on the x-axis as “Spon.” A DMSO control or compound II was then added to each myometrial sample at the indicated concentrations and the effects of control or compound II on work done per contraction were measured over the ensuing 10-minute period. […]

human FP = human FP (Homo sapiens, UniProt P43088); test: IP3 synthesis in FP-transfected HEK293-EBNA cells; details: tested up to 10 μM
human FP, sequence (P43088 whole entry): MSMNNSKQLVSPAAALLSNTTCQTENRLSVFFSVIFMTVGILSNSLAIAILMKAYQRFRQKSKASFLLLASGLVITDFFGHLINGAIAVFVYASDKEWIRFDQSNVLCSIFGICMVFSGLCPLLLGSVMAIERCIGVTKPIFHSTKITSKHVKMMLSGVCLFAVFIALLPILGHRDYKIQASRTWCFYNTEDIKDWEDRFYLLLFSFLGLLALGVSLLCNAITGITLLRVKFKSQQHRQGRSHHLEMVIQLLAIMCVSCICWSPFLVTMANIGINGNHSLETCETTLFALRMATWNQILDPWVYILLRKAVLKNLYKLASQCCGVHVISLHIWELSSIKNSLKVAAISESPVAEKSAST

O=C(N[C@@H](CCO)c1ccc(F)cc1)[C@@H]1SCCN1S(=O)(=O)c1ccc(-c2ccccc2)cc1 [Compound II, 3-([1,1′-biphenyl]-4-ylsulfonyl)-N-[1-(4-fluorophenyl)-3-hydroxypropyl]-1,3-thiazolidine-2-carboxamide]
Effect on OT-induced myometrial contractility [1]: suppressing both PGF2α-induced and OT-induced myometrial contractility in a dose-dependent fashion | Agonist activity (IP3 synthesis when added alone) (human FP): did not induce any synthesis of IP3
